Experimental data: patent US20160151380A1, “THERAPIES FOR DISEASES CAUSED BY ARTHROPOD-BORNE PARASITES” (THE REGENTS OF THE UNIVERSITY OF CALIFORNIA, priority 2013, published 2016)
“Also recorded” adds a separate entry of the source.

Legend:
JNK3 = JNK3 (Homo sapiens, UniProt P53779); settings: cited from earlier work
MAPK14 p38 = MAPK14 p38 (Homo sapiens, UniProt Q16539); settings: cited from earlier work
JNK1 = JNK1 (Homo sapiens, UniProt P45983); settings: cited from earlier work
PKCepsilon = molecular target: T1, PKCepsilon (Homo sapiens, UniProt Q02156); settings: PKCepsilon; cited from earlier work
T1 sequence (Q02156 1-737): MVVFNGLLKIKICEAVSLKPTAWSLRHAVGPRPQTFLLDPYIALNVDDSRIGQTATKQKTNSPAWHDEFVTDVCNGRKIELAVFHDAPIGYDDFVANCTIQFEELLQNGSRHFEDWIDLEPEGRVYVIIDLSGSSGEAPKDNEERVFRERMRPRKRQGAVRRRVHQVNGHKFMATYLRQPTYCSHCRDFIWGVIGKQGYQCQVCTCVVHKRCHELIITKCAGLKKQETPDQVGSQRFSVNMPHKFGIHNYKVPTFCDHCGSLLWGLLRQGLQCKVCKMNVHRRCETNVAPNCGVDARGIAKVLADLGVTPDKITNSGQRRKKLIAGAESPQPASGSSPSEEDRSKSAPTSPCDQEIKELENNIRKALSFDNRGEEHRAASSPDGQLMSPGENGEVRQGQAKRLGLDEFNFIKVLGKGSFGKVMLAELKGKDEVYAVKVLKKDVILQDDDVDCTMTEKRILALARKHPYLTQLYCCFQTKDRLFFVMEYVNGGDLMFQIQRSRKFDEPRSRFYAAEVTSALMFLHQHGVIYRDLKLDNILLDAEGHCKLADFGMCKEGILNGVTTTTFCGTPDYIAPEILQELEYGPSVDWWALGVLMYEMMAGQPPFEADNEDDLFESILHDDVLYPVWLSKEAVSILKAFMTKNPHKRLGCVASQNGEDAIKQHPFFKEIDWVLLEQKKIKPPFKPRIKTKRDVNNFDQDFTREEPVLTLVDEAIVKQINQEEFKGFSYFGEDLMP

Plasmodium falciparum [1] = experiment: P. falciparum growth in vitro (flow cytometry); type: cell-based; settings: 1 μM or 10 μM, 48 h, relative to vehicle control
anti-parasite genes = experiment: Midgut expression of anti-parasite/immune genes in A. stephensi (quantitative PCR); type: in vivo, Anopheles stephensi; settings: fed killed lysate of P. falciparum with BIRB 796; 6 h post-feeding
[2] = tested on: Anopheles stephensi p38 MAPK; experiment: MK2 phosphorylation in LPS-stimulated ASE cells (western blot); type: cell-based; settings: ASE cells pre-incubated with 10 μM inhibitor, 2 h later 1 μg/ml LPS
Plasmodium falciparum [3] = experiment: P. falciparum development in A. stephensi after supplemented bloodmeal (oocysts); type: in vivo; settings: 10 μM in bloodmeal
Protocol: Midguts were dissected and oocysts were counted at 10 days following infection. Dots in FIG. 3A and FIG. 3C represent oocyst numbers in one midgut, while percentage positive midguts or percentage of midguts with at least one oocyst are represented as means in FIG. 3B and FIG. 3D. Mean oocysts per midgut (lines, numbers on graph) were analyzed by ANOVA (alpha=0.05) for overall significance and by Student-Neuman-Keuls for pairwise comparisons using Graphpad Prism version 4.0 (San Diego, Calif.). Prevalences of mosquito infection (indicated on graph) were analyzed by chi-square (alpha=0.05).

A. freeborni = experiment: Mosquito lifespan, A. freeborni; type: in vivo; settings: 1 μM or 10 μM daily in water or once weekly via bloodmeal
A. stephensi = experiment: Mosquito lifespan, A. stephensi; type: in vivo, Anopheles stephensi; settings: 1 μM or 10 μM daily in water or once weekly via bloodmeal

Chain of JNK1 (P45983 whole entry, species assumed): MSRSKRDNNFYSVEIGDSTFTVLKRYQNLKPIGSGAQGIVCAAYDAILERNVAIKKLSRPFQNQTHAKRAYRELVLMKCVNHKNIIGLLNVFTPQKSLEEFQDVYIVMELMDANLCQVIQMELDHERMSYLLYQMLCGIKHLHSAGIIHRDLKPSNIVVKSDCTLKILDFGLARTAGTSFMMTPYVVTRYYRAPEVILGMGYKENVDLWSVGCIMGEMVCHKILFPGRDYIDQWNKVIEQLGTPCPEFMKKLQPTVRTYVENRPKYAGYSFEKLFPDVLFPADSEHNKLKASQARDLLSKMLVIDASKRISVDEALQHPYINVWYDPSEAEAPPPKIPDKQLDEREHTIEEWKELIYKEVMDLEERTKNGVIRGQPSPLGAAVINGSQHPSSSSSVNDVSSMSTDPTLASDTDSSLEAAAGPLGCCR
Chain of JNK3 (P53779 whole entry, species assumed): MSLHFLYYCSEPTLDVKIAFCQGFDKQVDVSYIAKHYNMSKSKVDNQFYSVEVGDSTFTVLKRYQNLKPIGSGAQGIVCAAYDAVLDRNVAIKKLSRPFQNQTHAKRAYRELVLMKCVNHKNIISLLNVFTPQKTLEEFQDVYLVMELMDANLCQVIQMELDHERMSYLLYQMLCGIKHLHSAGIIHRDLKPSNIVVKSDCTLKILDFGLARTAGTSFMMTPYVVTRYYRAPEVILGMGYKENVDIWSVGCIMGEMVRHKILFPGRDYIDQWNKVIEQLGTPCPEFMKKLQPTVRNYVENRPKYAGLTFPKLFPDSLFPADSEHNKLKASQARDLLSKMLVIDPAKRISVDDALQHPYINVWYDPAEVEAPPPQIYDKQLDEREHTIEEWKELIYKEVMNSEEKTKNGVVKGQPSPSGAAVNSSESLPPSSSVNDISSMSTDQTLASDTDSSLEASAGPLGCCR
Chain of MAPK14 p38 (Q16539 whole entry): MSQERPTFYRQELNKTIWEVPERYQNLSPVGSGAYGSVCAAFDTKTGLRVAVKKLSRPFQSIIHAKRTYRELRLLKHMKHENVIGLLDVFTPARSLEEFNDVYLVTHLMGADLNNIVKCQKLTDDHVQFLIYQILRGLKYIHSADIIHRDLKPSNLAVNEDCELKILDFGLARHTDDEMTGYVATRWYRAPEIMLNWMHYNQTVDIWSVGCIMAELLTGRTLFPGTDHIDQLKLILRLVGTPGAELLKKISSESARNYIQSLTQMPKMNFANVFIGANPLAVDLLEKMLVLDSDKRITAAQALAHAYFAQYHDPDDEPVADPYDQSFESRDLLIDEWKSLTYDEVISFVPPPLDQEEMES

Cc1ccc(C(=O)Nc2cccc(C(F)(F)F)c2)cc1-c1ccc2nc(NCCN3CCOCC3)ncc2c1 [AMG-47a]
IC50 (JNK3): 0.145 µM
IC50 (MAPK14 p38): 0.003 µM

O=C(Nc1c[nH]nc1-c1nc2cc(CN3CCOCC3)ccc2[nH]1)NC1CC1 [AT9283]
IC50 (JNK1): > 0.1 µM
IC50 (PKCepsilon): > 0.1 µM
IC50 (JNK3): > 0.1 µM
IC50 (MAPK14 p38): > 0.1 µM

Cc1ccc(-n2nc(C(C)(C)C)cc2NC(=O)Nc2ccc(OCCN3CCOCC3)c3ccccc23)cc1 [BIRB 796, 1-[5-tert-butyl-2-(4-methylphenyl)pyrazol-3-yl]-3-[4-(2-morpholin-4-ylethoxy)naphthalen-1-yl]urea]
P. falciparum growth in vitro (parasitemia) (Plasmodium falciparum [1]): Neither inhibitor significantly altered parasite growth; also recorded: no activity
immune gene expression levels in midgut (anti-parasite genes): significantly different from controls

COc1ccc(N(C(=O)Nc2c(C)cccc2C)c2cc(Nc3ccc(N4CCN(C)CC4)cc3)ncn2)c(OC)c1 [HG-9-91-01]
IC50 (JNK3): < 0.8 µM
IC50 (MAPK14 p38): < 0.6 µM

O=C(O)[C@]1(Cc2cccc(Nc3nccs3)n2)CC[C@@H](Oc2cccc(Cl)c2F)CC1 [MK5108]
IC50 (JNK1): > 1 µM
IC50 (PKCepsilon): > 1 µM
IC50 (JNK3): > 0.1 µM

C[S+]([O-])c1ccc(-c2nc(-c3ccc(F)cc3)c(-c3ccncc3)[nH]2)cc1 (stereo not drawn) [SB203580, 4-[4-(4-fluorophenyl)-2-(4-methylsulfinylphenyl)-1H-imidazol-5-yl]pyridine]
P. falciparum growth in vitro (parasitemia) (Plasmodium falciparum [1]): Neither inhibitor significantly altered parasite growth; also recorded: no such effects
p38 MAPK activity in the mosquito in vivo (mosquito p38 MAPK): significantly reduced
p-MK2 levels [2]: undetectable
infection prevalence (Plasmodium falciparum [3]; 10 days): significantly reduced
P. falciparum oocysts/midgut (Plasmodium falciparum [3]; oocysts counted at 10 days): significantly reduced

Oc1c2ccccc2c2c3c(cccc13)N=N2 [SP600125]
impact on lifespan (A. freeborni): no negative impact
impact on lifespan (A. stephensi): no negative impact

CCOC(=O)Cn1nc(C(F)F)cc1C [SureCN7018367]
Kd (JNK1): < 1.25 µM
Kd (JNK3): < 0.01 µM

CNC(=O)[C@@]1(N)C[C@H]2O[C@]1(C)n1c3ccccc3c3c4c(c5c6ccccc6n2c5c31)C(=O)NC4 [TTT-3002]
IC50 (JNK1): < 0.04 µM
IC50 (JNK3): < 0.06 µM

C=CC(=O)Nc1cccc(Oc2nc(Nc3ccc(N4CCN(C)CC4)cc3)ncc2Cl)c1 [WZ3146]
Kd (JNK1): > 1 µM
Kd (PKCepsilon): > 1 µM
Kd (JNK3): > 1 µM

C=CC(=O)Nc1cccc(Oc2nc(Nc3ccc(N4CCN(C)CC4)cc3OC)ncc2Cl)c1 [WZ4002]
Kd (JNK1): > 1 µM
Kd (PKCepsilon): > 1 µM
Kd (JNK3): > 1 µM
